Experimental data from patent publication US11844845B2, “Cell penetrating peptide, conjugate comprising same, and composition comprising conjugate” (GEMVAX & KAEL CO., LTD., priority 2012, dated 2023).

Test system: HeLa cell
Test: Cell penetration of pep(CPP)-FITC conjugate in HeLa cell line, flow cytometry (FACS)
Assay type: cell-based, Homo sapiens
Conditions: HeLa cells, 20 uM FITC-fused peptide, 37° C. for an hour, control = FITC only
Description: Homo sapiens cervix adenocarcinoma cell line as HeLa cell lines were purchased from ATCC (American Type Cell Culture). The cells were cultured in MEM supplemented with 10% fetal bovine serum (Invitrogen, USA), Earle's salts, non-essential amino acids, sodium pyruvate and 100 μg/ml penicillin and 10 units/ml streptomycin and cultured at 37° C., 5% CO2 incubator.
Flow cytometry and Confocal microscope analysis were performed to compare the between degree of cellular uptake of the cells were treated with SEQ ID NO: 2 to SEQ ID NO: 178, pep (CPP) and control.
The cell line was divided in a 6-well plate and cultured in a medium containing 10% fetal bovine serum (Invitrogen, USA), 100 μg/ml penicillin, 100 units/ml streptomycin at 37° C. 5% CO2 incubator for 12 hours. After washing the cell line with PBS, starvation was induced in a Minimum Essential Medium for an hour. 20 uM of each carrier peptide was treated and cultured at 37° C. for an hour. After repeating the step of washing the cells with PBS for three times, Trypsin-EDTA was treated form 10 mins at 37° C. to separate the carrier peptide on the outside of the cell. cells were collected with refrigerated PBS and centrifugation was performed to repeat the step of washing the cells for three times. After then, the cells were suspended in 0.5 ml of PBS containing 4% Paraformaldehyde and fluorescence of the cells was analyzed using FACS Calibur (Becton Dickinson). The cellular uptake aspect of control and various peptides combined with FITC was compared and analyzed by MFI (Mean Fluorescence Intensity).
Analysis results shown in FIGS. 2 to 29 are given in detail in Table 7 below.

| Substance | cellular uptake, MFI (Mean Fluorescence Intensity) |
| --- | --- |
| REARPALLTSRLRFIPKPD (listed as Homo sapiens) [Pep-RIA-18] | 13.4 ± 0.34 |
| EARPALLTSRL (listed as Homo sapiens) [Pep-RIA-82] | 10.12 ± 0.95 |
| ARPALLTSRLRFIPK (listed as Homo sapiens) [Pep-RIA-91] | 19.96 ± 0.51 |
| ALLTSRLRF (listed as Homo sapiens) [Pep-RIA-140] | 21.18 ± 0.11 |
| HREARPALLTSRLRFIPKPD (listed as Homo sapiens) [Pep-RIA-17] | 13.61 ± 0.22 |
| EARPALLTSRLRFIPKPDGLRPIVNMD (listed as Homo sapiens) [Pep-RIA-74] | 21.77 ± 2.01 |
| EARPALLTSRLRFIPKPDGLRPIVNM (listed as Homo sapiens) [Pep-RIA-73] | 24.33 ± 0.89 |
| RQHREARPALLTSRLRFIPK (listed as Homo sapiens) [Pep-RIA-4] | 27.25 ± 0.79 |
| EARPALLTSRLRFIPKPDGLRPIVN (listed as Homo sapiens) [Pep-RIA-72] | 21.7 ± 1.21 |
| HREARPALLTSRLRFIPKPDGLRP (listed as Homo sapiens) [Pep-RIA-49] | 15.15 ± 0.62 |
| RQHREARPALLISRLRFIPKPD (RQHREARPALLTSRLRFIPKPD; listed as Homo sapiens) [Pep-RIA-25] | 17.41 ± 0.32 |
| LRFIPK (listed as Homo sapiens) [Pep-RIA-100] | 14.69 ± 1.48 |
| ALLTSRLRFIP (listed as Homo sapiens) [Pep-RIA-139] | 34.19 ± 1.43 |
| VRQHREARPALLTSRLRFIPKPDGL (listed as Homo sapiens) [Pep-RIA-34] | 16.37 ± 0.97 |
| REARPALLTSRLRFIPKPDGLRPI (listed as Homo sapiens) [Pep-RIA-63] | 19.72 ± 0.33 |
| FIPK (listed as Homo sapiens) [Pep-RIA-102] | 12.64 ± 0.44 |
| EARPALLTSRLRFIPKP (listed as Homo sapiens) [Pep-RIA-64] | 15.51 ± 0.58 |
| REARPALLTSRLRFIPKPDG (listed as Homo sapiens) [Pep-RIA-23] | 16.57 ± 0.68 |
| HREARPALLTSRLRFIPK (listed as Homo sapiens) [Pep-RIA-2] | 20.56 ± 1.23 |
| ARPALL (listed as Homo sapiens) [Pep-RIA-117] | 15.06 ± 0.58 |
| RPALLTSRLRFI (listed as Homo sapiens) [Pep-RIA-105] | 19.4 ± 0.59 |
| PALLTSRLRF (listed as Homo sapiens) [Pep-RIA-106] | 18.41 ± 1.12 |
| VRQHREARPALLTSRLRFIPKPDGLRPI (listed as Homo sapiens) [Pep-RIA-59] | 22.69 ± 0.66 |

| Substance | cellular uptake, MFI (Mean Fluorescence Intensity) |
| --- | --- |
| LLTSRLRFIPK (listed as Homo sapiens) [Pep-RIA-95] | 25.79 ± 0.46 |
| HREARPALLTSRLRFIPKPDGLRPI (listed as Homo sapiens) [Pep-RIA-62] | 18.89 ± 0.75 |
| AEVRQHREARPALLTSRLRFIPKPDGLR (listed as Homo sapiens) [Pep-RIA-55] | 18.75 ± 1.51 |
| ARPALLTSRLRFIP (listed as Homo sapiens) [Pep-RIA-104] | 22.51 ± 0.96 |
| LLTSR (listed as Homo sapiens) [Pep-RIA-150] | 14.51 ± 0.81 |
| PAL (listed as Homo sapiens) [Pep-RIA-138] | 10.8 ± 0.78 |
| ARPALLTSRLRF (listed as Homo sapiens) [Pep-RIA-111] | 20.53 ± 0.21 |
| EVRQHREARPALLTSRLRFIPKPDG (listed as Homo sapiens) [Pep-RIA-42] | 15.27 ± 1.65 |
| EAEVRQHREARPALLTSRLRFIPK (listed as Homo sapiens) [Pep-RIA-8] | 14.12 ± 0.79 |
| PALLTSR (listed as Homo sapiens) [Pep-RIA-134] | 13.28 ± 0.75 |
| RQHREARPALLTSRLRFIPKPDGLRP (listed as Homo sapiens) [Pep-RIA-47] | 17.6 ± 0.82 |
| EARPALLTSRLRFIPKPDGLRPIVNMDYVV (listed as Homo sapiens) [Pep-RIA-77] | 87.67 ± 0.93 |
| EVRQHREARPALLTSRLRFIPKP (listed as Homo sapiens) [Pep-RIA-40] | 15.14 ± 3.52 |
| ARPA (listed as Homo sapiens) [Pep-RIA-119] | 11.19 ± 0.61 |
| EARPALLT (listed as Homo sapiens) [Pep-RIA-85] | 10.1 ± 0.34 |
| REARPALLTSRLRFIPK (listed as Homo sapiens) [Pep-RIA-1] | 24.3 ± 0.61 |
| ALLTSRLR (listed as Homo sapiens) [Pep-RIA-107] | 16.41 ± 1.36 |
| LTSRL (listed as Homo sapiens) [Pep-RIA-157] | 11.42 ± 0.32 |
| TSRLRFIPK (listed as Homo sapiens) [Pep-RIA-97] | 13.68 ± 0.37 |
| EARPALLTSRLRFI (listed as Homo sapiens) [Pep-RIA-79] | 10.73 ± 1.18 |
| EARPALLTSR (listed as Homo sapiens) [Pep-RIA-83] | 10.27 ± 0.25 |
| EARPALL (listed as Homo sapiens) [Pep-RIA-86] | 9.95 ± 2.34 |
| EARPAL (listed as Homo sapiens) [Pep-RIA-87] | 9.6 ± 1.76 |

| Substance | cellular uptake, MFI (Mean Fluorescence Intensity) |
| --- | --- |
| QLRELSEAEVRQHREARPALLTSRLRFIPK (listed as Homo sapiens) [Pep-RIA-14] | 23.67 ± 1.22 |
| TSRLRFIP (listed as Homo sapiens) [Pep-RIA-159] | 12.58 ± 1.08 |
| SRLRFI (listed as Homo sapiens) [Pep-RIA-166] | 6.97 ± 0.53 |
| EARPALLTSRLRFIPKPDGLRPIVNMDY (listed as Homo sapiens) [Pep-RIA-75] | 26.21 ± 1.29 |
| EARPA (listed as Homo sapiens) [Pep-RIA-88] | 8.89 ± 0.61 |
| ARPALLTS (listed as Homo sapiens) [Pep-RIA-115] | 12.13 ± 0.34 |
| LTSRLRF (listed as Homo sapiens) [Pep-RIA-155] | 14.31 ± 0.55 |
| RQHREARPALLTSRLRFIPKPDGL (listed as Homo sapiens) [Pep-RIA-27] | 19.69 ± 0.49 |
| RQHREARPALLTSRLRFIPKPDGLR (listed as Homo sapiens) [Pep-RIA-36] | 14.07 ± 0.41 |
| LLTSRLR (listed as Homo sapiens) [Pep-RIA-149] | 16.2 ± 0.22 |
| PALLTSRL (listed as Homo sapiens) [Pep-RIA-133] | 12.95 ± 0.69 |
| AEVRQHREARPALLTSRLRFIPKPDGLRPI (listed as Homo sapiens) [Pep-RIA-57] | 16.75 ± 0.48 |
| REARPALLTSRLRFIPKP (listed as Homo sapiens) [Pep-RIA-15] | 16.32 ± 0.36 |
| AEVRQHREARPALLTSRLRFIPKPDG (listed as Homo sapiens) [Pep-RIA-53] | 15.85 ± 0.74 |
| ARPALLTSRLRFI (listed as Homo sapiens) [Pep-RIA-110] | 11.89 ± 0.68 |
| IPK (listed as Homo sapiens) [Pep-RIA-103] | 10.44 ± 0.18 |
| ALL (listed as Homo sapiens) [Pep-RIA-145] | 13.85 ± 0.38 |
| RPALLTS (listed as Homo sapiens) [Pep-RIA-125] | 11.07 ± 0.55 |
| PALLTSRLRFIPK (listed as Homo sapiens) [Pep-RIA-93] | 22.88 ± 1.82 |
| PALL (listed as Homo sapiens) [Pep-RIA-137] | 10.71 ± 1.99 |
| RPAL (listed as Homo sapiens) [Pep-RIA-128] | 12.41 ± 0.16 |
| ARPALLTSRL (listed as Homo sapiens) [Pep-RIA-113] | 11.54 ± 1.57 |
